Legend:
[1] = Phase 1 single-dose crossover: bioavailability and food effect of Compound 1/Compound 2 bilayer tablets; type: in vivo, human; conditions: for Cmax / AUC(0-inf) / AUC(0-t) / half-life / Tmax: human, in vivo, oral, N = 23; for Cmax / AUC(0-inf) / AUC(0-t): geometric mean; for half-life: harmonic mean; for Tmax: median
Description: Phase 1, single-dose, four-period, randomized, complete crossover clinical trials were conducted to determine the bioavailability and food effect of the Compound 1/Compound 2 film-coated bilayer tablets. Tablets described in Table 1b were used in Regimens A, B and C, and separate tablets containing either Compound 1 or Compound 2 were used in Regimen D. Subjects took a single dose of Compound 1/Compound 2 on Day 1 of each Period. There was a washout of 4 days between doses. • i. Regimens A and D: study drugs were taken under fasting conditions. • ii. Regimen B: study drugs were taken approximately 30 minutes after start of moderate-fat breakfast (about 30% calories from fat). • iii. Regimen C: study drugs were taken approx. 30 minutes after start of high-fat breakfast (50% calories from fat). For Regimens A, B and C, the single dose consisted of three tablets of Table 1b, each tablet contains 100 mg/40 mg Compound 1/Compound 2. For Regimen D, the single dose contained three tablets of Compound 1, each of which contained 100 mg Compound 1, as well as three tablets of Compound 2, each of which contained 40 mg Compound 2. [table] [table]

[2] = Single-dose crossover: bioavailability of Compound 1/Compound 2 mini-tablets; type: in vivo, human; conditions: for Cmax / AUC(0-inf) / AUC(0-t) / half-life / Tmax: human, in vivo, oral, N = 14; for Cmax / AUC(0-inf) / AUC(0-t): geometric mean; for half-life: harmonic mean; for Tmax: median
Description: In comparison, when administered with food, the mini-tablets provided an AUC that was only 5% lower than that provided by the regular tablets. […] All of the reference AUCs of the regular tablets were measured under fasting conditions.
14 subjects were enrolled in this study and dosed with co-formulated Compound 1/Compound 2 in mini-tablets. One subject spilled 4 mini-tablets (out of 100-150 total mini-tablets) during dosing of Period 2 (Regimen G) and was not excluded from the analysis. The mini-tablets were prepared according to a process similar to that described in Example 2.

[3] = Steady-state pharmacokinetics of film-coated granules in pediatric subjects by age group; type: in vivo, human; design: Ctrough: unit not given here; conditions: for Ctrough / AUC: Week 2; for AUC: human, oral, film-coated granules
Description: The study was designed to assess the steady state AUC and to assess the pharmacokinetics (PK) of Compound 1/Compound 2 in pediatric subjects by age group. […] Subjects were enrolled in this study and dosed with film-coated granules containing Compound 1/Compound 2 as generally described above in Example 3. [table] An intensive PK sample draw was done at the Week 2 visit with blood samples taken immediately prior to dose (0 hour) and at 2, 4, 6, and 12 hours post dose.

clinical = conditions: human, in vivo
Text: Target AUC was derived from the geometric mean of AUC values from a population of adult subjects who received Compound 1 and Compound 2.

[4] = Predicted PK exposures (Pop-PK AUC) in pediatric subjects; type: in vivo; design: concentration or dose not given beside the values; conditions: human, oral
Text: The predicted PK exposures (“Pop-PK AUC”) of Compound 1/Compound 2 based on all PK information collected in the study (including data from other study weeks) is shown in Table 13 and Table 13a.

[5] = Pharmacokinetic properties in healthy subjects; type: in vivo, human; conditions: for Tmax: oral, median, single doses
[6] = Binding to human plasma proteins; type: in vitro ADME; conditions: read-out: % Bound to human plasma proteins (converted)
Blood-to-plasma ratio = type: in vitro ADME; conditions: human, whole blood/plasma
[7] = Mass balance studies with [14C] compound, single dose; type: in vivo, human; conditions: single dose of [14C] compound
[8] = Phase 1 single-dose crossover: bioavailability and food effect of Compound 1/Compound 2 bilayer tablets; type: in vivo, human; conditions: film-coated vs uncoated bilayer tablets, additional studies
[9] = Regimen A: single dose bilayer tablets 300 mg/120 mg, fasting
[10] = Regimen B: single dose bilayer tablets 300 mg/120 mg with moderate fat breakfast
[11] = Regimen C: single dose bilayer tablets 300 mg/120 mg with high fat breakfast
[12] = Regimen D: single dose separate Compound 1 tablets (3 × 100 mg) and Compound 2 tablets (3 × 40 mg), fasting
[13] = Regimen F: single dose mini-tablets 200 mg/120 mg, fasting
[14] = Regimen G: single dose mini-tablets 200 mg/120 mg, non-fasting
[15] = Regimen J: two Compound 1 tablets (100 mg each) and three Compound 2 tablets (40 mg each), fasting
[16] = mean systemic exposure with moderate to high fat meals

Effect of administration with food on bioavailability ([1]; bilayer tablets): significantly improved
Cmax ([1]; Regimen A: single dose bilayer tablets 300 mg/120 mg (3 × 100 mg/40 mg), fasting): 116 ng/mL
AUC(0-inf) [1, 9]: 960 ng·h/mL
AUC(0-t) [1, 9]: 910 ng·h/mL
half-life [1, 9]: 13.3 h
Tmax [1, 9]: 4 h
AUC(0-inf) [1, 10]: 1350 ng·h/mL
AUC(0-t) [1, 10]: 1280 ng·h/mL
Cmax [1, 10]: 221 ng/mL
half-life [1, 10]: 13 h
Tmax [1, 10]: 5 h
AUC(0-inf) [1, 11]: 1460 ng·h/mL
AUC(0-t) [1, 11]: 1390 ng·h/mL
Cmax [1, 11]: 237 ng/mL
half-life [1, 11]: 13.5 h
Tmax [1, 11]: 5 h
AUC(0-inf) [1, 12]: 1490 ng·h/mL
AUC(0-t) [1, 12]: 1420 ng·h/mL
Cmax [1, 12]: 175 ng/mL
half-life [1, 12]: 12.5 h
Tmax [1, 12]: 4 h
Effect of administration with food on bioavailability ([2]; co-formulated mini-tablets): significantly increased
Cmax ([2]; Regimen F: single dose mini-tablets 200 mg/120 mg Compound 1/Compound 2, fasting): 96 ng/mL
AUC(0-inf) [2, 13]: 913 ng·h/mL
AUC(0-t) [2, 13]: 863 ng·h/mL
half-life [2, 13]: 13.4 h
Tmax [2, 13]: 4 h
Cmax ([2]; Regimen G: single dose mini-tablets 200 mg/120 mg Compound 1/Compound 2, non-fasting): 177 ng/mL
AUC(0-inf) [2, 14]: 1320 ng·h/mL
AUC(0-t) [2, 14]: 1250 ng·h/mL
half-life [2, 14]: 13.2 h
Tmax [2, 14]: 3 h
Cmax ([2]; Regimen J: single dose two Compound 1 tablets (100 mg each) and three Compound 2 tablets (40 mg each), fasting): 139 ng/mL
AUC(0-inf) [2, 15]: 1260 ng·h/mL
AUC(0-t) [2, 15]: 1190 ng·h/mL
half-life [2, 15]: 13.3 h
Tmax [2, 15]: 4.5 h
AUC of mini-tablets higher than that of regular tablets (fasting) ([2]; mini-tablets with food, 120 mg Compound 2): 6%
AUC of mini-tablets lower than that of regular tablets (fasting) ([2]; mini-tablets without food, 200 mg Compound 1 / 120 mg Compound 2, same solid dispersion formulation): 28%
Ctrough ([3]; 3 to <6 years old, post-adjustment 150 mg/60 mg, N 10): 17.5 (139)
Ctrough ([3]; 6 to <9 years old, post-adjustment 200 mg/80 mg, N 9): 20.0 (119)
Ctrough ([3]; 9 to <12 years old, post-adjustment 250 mg/100 mg, N 10): 40.8 (194)
AUC ([3]; blood, 3 to <6 years old, pre-adjustment, 3 sachets, 120 mg/45 mg, read-out: AUC, Geometric Mean): 871 ng·h/mL
AUC ([3]; blood, 6 to <9 years old, pre-adjustment, 4 sachets, 160 mg/60 mg, read-out: AUC, Geometric Mean): 987 ng·h/mL
AUC ([3]; blood, 9 to <12 years old, pre-adjustment, 5 sachets, 200 mg/75 mg Compound 1/Compound 2, read-out: AUC, Geometric Mean): 1250 ng·h/mL
AUC ([3]; in vivo, 3 to <6 years old, post-adjustment, 3 sachets, 150 mg/60 mg, N 10, read-out: AUC): 1660 ng·h/mL
AUC ([3]; in vivo, 6 to <9 years old, post-adjustment, 4 sachets, 200 mg/80 mg, N 9, read-out: AUC): 1520 ng·h/mL
AUC ([3]; in vivo, 9 to <12 years old, post-adjustment, 5 sachets, 250 mg/100 mg Compound 1/Compound 2, N 10, read-out: AUC): 2300 ng·h/mL
AUC (clinical): 1430 ng·h/mL
AUC ([4]; blood, Table 13, 3 to <6 years old, N 10, predicted): 1430 ng·h/mL
AUC ([4]; blood, Table 13, 6 to <9 years old, N 9, predicted): 1460 ng·h/mL
AUC ([4]; blood, Table 13, 9 to <12 years old, N 10, predicted from all PK information collected in the study): 1440 ng·h/mL
AUC ([4]; in vivo, Table 13a, 3 to <6 years old, N 10, predicted): 1760 ng·h/mL
AUC ([4]; in vivo, Table 13a, 6 to <9 years old, N 9, predicted): 1730 ng·h/mL
AUC ([4]; in vivo, Table 13a, 9 to <12 years old, N 10, predicted): 2360 ng·h/mL
Metabolism ([5]; Biotransformation): none
Major route of elimination ([5]; human, in vivo): Biliary
Tmax ([5]; human, in vivo, healthy subjects, read-out: Tmax of granules): 3 to 5 h
Tmax ([5]; human, in vivo, healthy subjects, read-out: Tmax of tablets): 5 h
half-life ([5]; human, in vivo, healthy subjects, read-out: t1/2 at steady-state): 23 to 29 h
Effect of meal (relative to fasting) on adult tablets, ↑ [5, 16]: ↑ 40-53%
Effect of meal (relative to fasting) on granules, ↑ [5, 16]: ↑ 56-115%
fraction unbound [6]: < 0.001
blood plasma ratio (Blood-to-plasma ratio): 0.62
% of dose excreted in faeces [7]: 96.6%
% of dose excreted in urine [7]: 0%
Impact of film-coating on bioavailability [8]: minimal impact
Structure (SMILES): COC(=O)N[C@H](C(=O)N1CCC[C@H]1c1nc2cc([C@H]3CC[C@H](c4cc5nc([C@@H]6CCCN6C(=O)[C@@H](NC(=O)OC)[C@@H](C)OC)[nH]c5cc4F)N3c3cc(F)c(N4CCC(c5ccc(F)cc5)CC4)c(F)c3)c(F)cc2[nH]1)[C@@H](C)OC [Compound 2]
Exposures in children aged 3 to <12 years vs adolescents 12 to <18 years and adults from Phase 2/3 studies ([3]; recommended doses according to body weight): comparable
